{"source": "ChEMBL document CHEMBL4118098", "about": "“Discovery of DS28120313 as a potent orally active hepcidin production inhibitor: Design and optimization of novel 4,6-disubstituted indazole derivatives” (Bioorg Med Chem Lett, 2017)", "key": {"[1]": {"target": "Mitogen-activated protein kinase 1 (Homo sapiens) (UniProt P28482)", "sequence (P28482 whole entry)": "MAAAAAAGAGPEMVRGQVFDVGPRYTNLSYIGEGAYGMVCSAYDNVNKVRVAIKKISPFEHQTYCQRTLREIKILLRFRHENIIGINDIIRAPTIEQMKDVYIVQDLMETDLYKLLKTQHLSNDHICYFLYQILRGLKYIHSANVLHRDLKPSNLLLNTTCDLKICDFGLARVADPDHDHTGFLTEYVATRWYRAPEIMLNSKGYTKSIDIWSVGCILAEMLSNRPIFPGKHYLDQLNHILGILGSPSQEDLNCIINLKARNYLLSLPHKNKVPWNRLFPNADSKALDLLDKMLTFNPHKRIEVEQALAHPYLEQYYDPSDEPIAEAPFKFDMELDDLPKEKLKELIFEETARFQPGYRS", "assay": "Inhibition of Erk2 (unknown origin) at 0.45 uM relative to control"}, "[2]": {"target": "Serine/threonine-protein kinase Chk1 (Homo sapiens) (UniProt O14757)", "assay": "Inhibition of CHK1 (unknown origin) at 0.19 uM relative to control"}, "[3]": {"target": "Serine/threonine-protein kinase Chk2 (Homo sapiens) (UniProt O96017)", "assay": "Inhibition of CHK2 (unknown origin) at 0.19 uM relative to control"}, "[4]": {"target": "Cytoplasmic tyrosine-protein kinase BMX (Homo sapiens) (UniProt P51813)", "assay": "Inhibition of BMX (unknown origin) at 0.19 uM relative to control"}, "[5]": {"target": "Casein kinase I isoform alpha (Homo sapiens) (UniProt P48729)", "assay": "Inhibition of CSNK1A1 (unknown origin) at 0.19 uM relative to control"}, "[6]": {"target": "Serine/threonine-protein kinase pim-1 (Homo sapiens) (UniProt P11309)", "sequence (P11309 whole entry, looked up)": "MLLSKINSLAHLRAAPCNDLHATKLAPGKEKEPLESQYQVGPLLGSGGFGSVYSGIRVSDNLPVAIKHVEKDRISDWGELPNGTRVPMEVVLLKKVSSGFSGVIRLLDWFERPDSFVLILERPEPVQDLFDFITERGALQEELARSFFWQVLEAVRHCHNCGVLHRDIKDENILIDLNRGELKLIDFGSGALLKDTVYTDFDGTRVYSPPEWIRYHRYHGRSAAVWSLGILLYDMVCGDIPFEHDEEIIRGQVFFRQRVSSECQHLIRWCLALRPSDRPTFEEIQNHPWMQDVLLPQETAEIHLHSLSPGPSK", "assay": "Inhibition of PIM1 (unknown origin) at 0.19 uM relative to control"}, "[7]": {"target": "Ribosomal protein S6 kinase alpha-3 (Homo sapiens) (UniProt P51812)", "sequence (P51812 whole entry)": "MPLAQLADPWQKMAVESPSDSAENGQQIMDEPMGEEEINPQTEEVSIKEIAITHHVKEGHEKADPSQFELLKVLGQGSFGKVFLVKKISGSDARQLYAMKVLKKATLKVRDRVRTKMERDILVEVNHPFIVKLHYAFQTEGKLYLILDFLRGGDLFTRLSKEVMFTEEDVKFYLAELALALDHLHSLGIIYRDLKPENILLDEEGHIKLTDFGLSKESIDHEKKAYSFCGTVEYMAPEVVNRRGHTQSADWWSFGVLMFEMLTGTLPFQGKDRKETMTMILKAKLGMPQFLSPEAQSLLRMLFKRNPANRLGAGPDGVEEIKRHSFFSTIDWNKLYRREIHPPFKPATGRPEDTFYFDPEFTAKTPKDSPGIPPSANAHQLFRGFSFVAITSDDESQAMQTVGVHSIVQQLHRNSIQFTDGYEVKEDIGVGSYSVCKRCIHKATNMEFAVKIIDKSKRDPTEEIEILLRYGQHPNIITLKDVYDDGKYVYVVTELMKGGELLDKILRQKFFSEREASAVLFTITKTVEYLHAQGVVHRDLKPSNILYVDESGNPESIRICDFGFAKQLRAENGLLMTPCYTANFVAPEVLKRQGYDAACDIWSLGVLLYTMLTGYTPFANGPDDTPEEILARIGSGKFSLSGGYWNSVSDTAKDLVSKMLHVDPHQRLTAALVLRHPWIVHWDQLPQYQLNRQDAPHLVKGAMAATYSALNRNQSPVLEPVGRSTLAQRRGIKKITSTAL", "assay": "Inhibition of RSK2 (unknown origin) at 0.19 uM relative to control"}, "[8]": {"target": "T1, Tyrosine-protein kinase TXK (Homo sapiens) (UniProt P42681)", "T1 sequence (whole entry)": "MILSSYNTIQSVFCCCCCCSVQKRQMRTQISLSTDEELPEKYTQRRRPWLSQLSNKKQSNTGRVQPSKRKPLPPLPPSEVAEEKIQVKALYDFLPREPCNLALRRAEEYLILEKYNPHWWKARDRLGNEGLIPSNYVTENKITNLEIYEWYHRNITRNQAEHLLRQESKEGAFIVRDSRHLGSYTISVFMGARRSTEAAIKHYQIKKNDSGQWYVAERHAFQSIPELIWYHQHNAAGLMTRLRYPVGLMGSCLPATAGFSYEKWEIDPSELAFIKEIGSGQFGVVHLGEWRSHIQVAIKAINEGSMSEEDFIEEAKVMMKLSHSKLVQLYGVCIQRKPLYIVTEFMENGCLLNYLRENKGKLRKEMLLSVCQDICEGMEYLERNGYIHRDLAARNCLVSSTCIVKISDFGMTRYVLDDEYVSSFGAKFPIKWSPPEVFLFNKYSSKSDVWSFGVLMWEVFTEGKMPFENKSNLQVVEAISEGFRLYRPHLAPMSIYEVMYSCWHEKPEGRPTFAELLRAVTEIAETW", "assay": "Inhibition of TXK (unknown origin) at 0.19 uM relative to control"}, "[9]": {"target": "Casein kinase I isoform gamma-3 (Homo sapiens) (UniProt Q9Y6M4)", "assay": "Inhibition of CK1-gamma3 (unknown origin) at 0.19 uM relative to control"}, "[10]": {"target": "Serine/threonine-protein kinase Sgk1 (Homo sapiens) (UniProt O00141)", "sequence (O00141 whole entry)": "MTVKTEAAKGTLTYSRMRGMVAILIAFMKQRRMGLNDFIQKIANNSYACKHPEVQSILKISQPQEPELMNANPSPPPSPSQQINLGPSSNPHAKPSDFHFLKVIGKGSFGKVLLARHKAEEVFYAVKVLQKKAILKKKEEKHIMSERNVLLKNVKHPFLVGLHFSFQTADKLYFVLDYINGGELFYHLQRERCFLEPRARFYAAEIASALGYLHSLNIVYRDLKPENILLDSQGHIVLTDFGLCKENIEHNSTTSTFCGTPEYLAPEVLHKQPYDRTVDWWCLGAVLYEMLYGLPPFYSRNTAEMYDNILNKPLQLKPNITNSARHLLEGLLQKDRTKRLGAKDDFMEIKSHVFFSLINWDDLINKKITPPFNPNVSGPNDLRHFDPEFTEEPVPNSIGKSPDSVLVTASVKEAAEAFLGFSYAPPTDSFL", "assay": "Inhibition of SGK1 (unknown origin) at 0.19 uM relative to control"}, "[11]": {"target": "Ephrin type-A receptor 5 (Homo sapiens) (UniProt P54756)", "assay": "Inhibition of EPHA5 (unknown origin) at 0.19 uM relative to control"}, "[12]": {"target": "Tyrosine-protein kinase Lyn (Homo sapiens) (UniProt P07948)", "sequence (P07948 2-512 limits assumed)": "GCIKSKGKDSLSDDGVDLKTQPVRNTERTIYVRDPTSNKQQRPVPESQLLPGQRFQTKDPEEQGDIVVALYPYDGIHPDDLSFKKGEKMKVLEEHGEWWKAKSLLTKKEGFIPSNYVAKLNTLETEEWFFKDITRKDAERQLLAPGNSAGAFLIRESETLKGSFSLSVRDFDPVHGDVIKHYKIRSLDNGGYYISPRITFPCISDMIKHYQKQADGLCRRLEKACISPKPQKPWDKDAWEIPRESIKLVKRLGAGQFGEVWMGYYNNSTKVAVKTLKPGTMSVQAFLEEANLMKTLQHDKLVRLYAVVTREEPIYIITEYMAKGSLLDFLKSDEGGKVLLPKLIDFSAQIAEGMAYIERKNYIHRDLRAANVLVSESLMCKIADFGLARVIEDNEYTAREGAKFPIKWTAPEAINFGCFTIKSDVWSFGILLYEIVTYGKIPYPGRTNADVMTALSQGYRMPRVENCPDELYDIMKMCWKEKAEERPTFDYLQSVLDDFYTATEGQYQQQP", "assay": "Inhibition of LYNB (unknown origin) at 0.19 uM relative to control"}, "[13]": {"target": "Misshapen-like kinase 1 (Homo sapiens) (UniProt Q8N4C8)", "assay": "Inhibition of MINK (unknown origin) at 0.19 uM relative to control"}, "[14]": {"target": "Tyrosine-protein kinase Fes/Fps (Homo sapiens) (UniProt P07332)", "assay": "Inhibition of FES (unknown origin) at 0.19 uM relative to control"}, "[15]": {"target": "Calcium/calmodulin-dependent protein kinase type II subunit beta (Homo sapiens) (UniProt Q13554)", "assay": "Inhibition of CaMK2-beta (unknown origin) at 0.19 uM relative to control"}, "[16]": {"target": "Mitogen-activated protein kinase 13 (Homo sapiens) (UniProt O15264)", "assay": "Inhibition of p38-delta (unknown origin) at 0.19 uM relative to control"}, "[17]": {"target": "Platelet-derived growth factor receptor alpha (Homo sapiens) (UniProt P16234)", "sequence (P16234 whole entry)": "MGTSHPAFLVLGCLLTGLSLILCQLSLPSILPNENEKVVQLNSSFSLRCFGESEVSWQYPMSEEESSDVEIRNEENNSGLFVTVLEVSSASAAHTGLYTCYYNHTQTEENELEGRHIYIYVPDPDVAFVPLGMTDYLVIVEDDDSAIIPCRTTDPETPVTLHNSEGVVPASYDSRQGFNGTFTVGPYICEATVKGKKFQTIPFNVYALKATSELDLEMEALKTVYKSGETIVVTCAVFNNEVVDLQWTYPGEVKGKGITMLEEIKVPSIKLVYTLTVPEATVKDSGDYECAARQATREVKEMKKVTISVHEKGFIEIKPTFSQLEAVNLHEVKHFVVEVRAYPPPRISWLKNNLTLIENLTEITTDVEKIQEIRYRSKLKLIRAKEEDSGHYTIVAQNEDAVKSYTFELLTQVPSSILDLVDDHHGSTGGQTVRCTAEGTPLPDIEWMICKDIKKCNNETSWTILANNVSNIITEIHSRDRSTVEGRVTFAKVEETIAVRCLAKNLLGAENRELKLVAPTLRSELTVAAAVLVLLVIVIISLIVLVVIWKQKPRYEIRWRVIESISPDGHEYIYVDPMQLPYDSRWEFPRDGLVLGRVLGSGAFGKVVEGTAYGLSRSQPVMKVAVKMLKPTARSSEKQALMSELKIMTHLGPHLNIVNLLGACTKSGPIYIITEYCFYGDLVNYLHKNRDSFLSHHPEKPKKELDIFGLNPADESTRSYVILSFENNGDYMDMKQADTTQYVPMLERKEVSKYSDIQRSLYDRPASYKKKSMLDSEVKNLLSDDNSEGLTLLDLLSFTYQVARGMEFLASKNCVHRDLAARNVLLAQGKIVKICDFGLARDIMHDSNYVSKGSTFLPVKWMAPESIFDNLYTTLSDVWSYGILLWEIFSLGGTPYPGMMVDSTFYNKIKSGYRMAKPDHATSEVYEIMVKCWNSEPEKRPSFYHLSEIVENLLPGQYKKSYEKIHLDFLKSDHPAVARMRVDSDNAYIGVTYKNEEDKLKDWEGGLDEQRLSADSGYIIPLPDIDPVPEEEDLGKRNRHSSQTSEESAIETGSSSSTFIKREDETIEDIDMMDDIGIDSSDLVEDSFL", "assay": "Inhibition of PDGFR alpha (unknown origin) at 0.19 uM relative to control"}, "[18]": {"target": "Ephrin type-A receptor 8 (Homo sapiens) (UniProt P29322)", "sequence (P29322 whole entry)": "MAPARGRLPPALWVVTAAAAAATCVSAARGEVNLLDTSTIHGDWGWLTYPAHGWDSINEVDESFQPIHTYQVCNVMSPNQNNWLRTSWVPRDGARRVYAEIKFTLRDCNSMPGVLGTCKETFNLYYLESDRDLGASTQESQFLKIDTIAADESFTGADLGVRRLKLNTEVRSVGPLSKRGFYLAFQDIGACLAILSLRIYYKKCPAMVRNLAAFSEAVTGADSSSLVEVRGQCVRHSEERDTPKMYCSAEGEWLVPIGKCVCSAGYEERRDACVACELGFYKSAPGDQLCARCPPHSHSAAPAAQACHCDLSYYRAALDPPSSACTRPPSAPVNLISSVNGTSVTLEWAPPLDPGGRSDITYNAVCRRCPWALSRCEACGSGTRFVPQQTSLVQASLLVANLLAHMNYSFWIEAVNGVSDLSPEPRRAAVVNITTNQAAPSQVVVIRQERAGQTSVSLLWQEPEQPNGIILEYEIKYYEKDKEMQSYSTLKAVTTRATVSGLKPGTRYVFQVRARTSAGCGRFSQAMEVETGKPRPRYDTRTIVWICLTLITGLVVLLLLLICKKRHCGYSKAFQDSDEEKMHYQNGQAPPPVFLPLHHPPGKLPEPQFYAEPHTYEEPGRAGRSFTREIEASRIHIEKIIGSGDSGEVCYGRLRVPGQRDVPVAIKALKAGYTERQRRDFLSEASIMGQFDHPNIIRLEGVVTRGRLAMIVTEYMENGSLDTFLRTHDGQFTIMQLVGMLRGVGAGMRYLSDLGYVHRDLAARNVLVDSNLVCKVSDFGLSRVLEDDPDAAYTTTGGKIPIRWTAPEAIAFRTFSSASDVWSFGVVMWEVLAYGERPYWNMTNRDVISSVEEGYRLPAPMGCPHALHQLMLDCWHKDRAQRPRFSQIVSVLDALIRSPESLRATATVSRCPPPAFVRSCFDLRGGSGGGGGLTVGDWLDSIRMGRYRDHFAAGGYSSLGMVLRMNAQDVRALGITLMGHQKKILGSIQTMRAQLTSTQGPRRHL", "assay": "Inhibition of EPHA8 (unknown origin) at 0.19 uM relative to control"}, "[19]": {"test_system": "Leucine-rich repeat serine/threonine-protein kinase 2 (Homo sapiens), Q5S007 [G2019S]", "assay": "Inhibition of LRRK2 G2019S mutant (unknown origin) at 0.19 uM relative to control"}, "[20]": {"target": "T2, Mitogen-activated protein kinase 12 (Homo sapiens) (UniProt P53778)", "T2 sequence (whole entry)": "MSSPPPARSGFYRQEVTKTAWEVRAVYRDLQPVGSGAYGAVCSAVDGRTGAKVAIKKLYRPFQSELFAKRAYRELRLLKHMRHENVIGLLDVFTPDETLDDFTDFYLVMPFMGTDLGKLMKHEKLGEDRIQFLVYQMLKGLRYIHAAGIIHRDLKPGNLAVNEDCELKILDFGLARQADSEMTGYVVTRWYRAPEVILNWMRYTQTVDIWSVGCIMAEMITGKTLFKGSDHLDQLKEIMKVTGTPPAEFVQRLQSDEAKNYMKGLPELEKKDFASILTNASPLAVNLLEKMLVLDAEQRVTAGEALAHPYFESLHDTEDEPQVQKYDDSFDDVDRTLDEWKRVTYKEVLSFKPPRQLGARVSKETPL", "assay": "Inhibition of p38-gamma (unknown origin) at 0.164 uM relative to control"}, "[21]": {"target": "Ribosomal protein S6 kinase alpha-3 (Homo sapiens) (UniProt P51812)", "assay": "Inhibition of RSK2 (unknown origin) at 0.164 uM relative to control"}, "[22]": {"target": "T1, Tyrosine-protein kinase TXK (Homo sapiens)", "assay": "Inhibition of TXK (unknown origin) at 0.164 uM relative to control"}, "[23]": {"target": "Tyrosine-protein kinase Lyn (Homo sapiens) (UniProt P07948)", "assay": "Inhibition of LYNB (unknown origin) at 0.164 uM relative to control"}, "[24]": {"target": "BDNF/NT-3 growth factors receptor (Homo sapiens) (UniProt Q16620)", "assay": "Inhibition of NTRK2 (unknown origin) at 0.164 uM relative to control"}, "[25]": {"target": "Serine/threonine-protein kinase PAK 3 (Homo sapiens) (UniProt O75914)", "assay": "Inhibition of PAK3 (unknown origin) at 0.164 uM relative to control"}, "[26]": {"target": "STE20-like serine/threonine-protein kinase (Homo sapiens) (UniProt Q9H2G2)", "assay": "Inhibition of SLK (unknown origin) at 0.164 uM relative to control"}, "[27]": {"target": "Platelet-derived growth factor receptor alpha (Homo sapiens) (UniProt P16234)", "assay": "Inhibition of PDGFR alpha (unknown origin) at 0.164 uM relative to control"}, "[28]": {"target": "RAC-gamma serine/threonine-protein kinase (Homo sapiens) (UniProt Q9Y243)", "assay": "Inhibition of AKT3 (unknown origin) at 0.164 uM relative to control"}, "[29]": {"target": "Dual specificity tyrosine-phosphorylation-regulated kinase 3 (Homo sapiens) (UniProt O43781)", "sequence (O43781 whole entry)": "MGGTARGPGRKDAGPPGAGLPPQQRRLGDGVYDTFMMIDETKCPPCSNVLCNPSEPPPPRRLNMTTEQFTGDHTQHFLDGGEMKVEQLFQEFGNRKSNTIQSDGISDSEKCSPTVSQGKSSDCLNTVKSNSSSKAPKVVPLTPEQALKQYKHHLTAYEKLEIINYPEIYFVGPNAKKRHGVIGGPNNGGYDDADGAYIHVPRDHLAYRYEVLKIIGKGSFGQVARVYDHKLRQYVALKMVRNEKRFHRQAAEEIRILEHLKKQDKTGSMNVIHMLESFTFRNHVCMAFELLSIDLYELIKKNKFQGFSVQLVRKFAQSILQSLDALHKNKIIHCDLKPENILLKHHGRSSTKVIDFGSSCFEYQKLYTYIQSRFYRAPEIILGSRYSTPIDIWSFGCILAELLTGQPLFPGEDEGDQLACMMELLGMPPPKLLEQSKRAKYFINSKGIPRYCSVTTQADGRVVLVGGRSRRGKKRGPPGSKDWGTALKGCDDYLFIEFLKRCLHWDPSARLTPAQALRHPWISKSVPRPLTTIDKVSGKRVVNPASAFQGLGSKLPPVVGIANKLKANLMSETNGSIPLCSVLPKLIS", "assay": "Inhibition of DYRK3 (unknown origin) at 0.164 uM relative to control"}}, "data": [{"molecule": "Cc1n[nH]c(C)c1-c1ccc2c(NC(=O)c3ccc(N4CCN(C)CC4)cc3)n[nH]c2c1", "values": [{"measurement": "inhibition", "setting": "[1]", "result": -0.3, "unit": "%"}]}, {"molecule": "Cc1[nH]nc(C2CC2)c1-c1ccc2c(-c3ccc(N4CCN(C)CC4)nc3)n[nH]c2c1", "values": [{"measurement": "inhibition", "setting": "[2]", "result": -8.7, "unit": "%"}, {"measurement": "inhibition", "setting": "[3]", "result": 3, "unit": "%"}, {"measurement": "inhibition", "setting": "[4]", "result": -3.7, "unit": "%"}, {"measurement": "inhibition", "setting": "[5]", "result": 0.7, "unit": "%"}, {"measurement": "inhibition", "setting": "[6]", "result": -1.3, "unit": "%"}, {"measurement": "inhibition", "setting": "[7]", "result": -5.7, "unit": "%"}, {"measurement": "inhibition", "setting": "[8]", "result": -8.3, "unit": "%"}, {"measurement": "inhibition", "setting": "[9]", "result": 1, "unit": "%"}, {"measurement": "inhibition", "setting": "[10]", "result": 6.3, "unit": "%"}, {"measurement": "inhibition", "setting": "[11]", "result": 3, "unit": "%"}, {"measurement": "inhibition", "setting": "[12]", "result": 10.7, "unit": "%"}, {"measurement": "inhibition", "setting": "[13]", "result": 82.7, "unit": "%"}, {"measurement": "inhibition", "setting": "[14]", "result": -5, "unit": "%"}, {"measurement": "inhibition", "setting": "[15]", "result": 1.7, "unit": "%"}, {"measurement": "inhibition", "setting": "[16]", "result": 4.7, "unit": "%"}, {"measurement": "inhibition", "setting": "[17]", "result": 36, "unit": "%"}, {"measurement": "inhibition", "setting": "[18]", "result": 9.3, "unit": "%"}, {"measurement": "inhibition", "setting": "[19]", "result": 18, "unit": "%"}]}, {"molecule": "COC(=O)Nc1cc(-c2c(C3CC3)n[nH]c2C)cc2[nH]ncc12", "values": [{"measurement": "inhibition", "setting": "[20]", "result": 0.3, "unit": "%"}, {"measurement": "inhibition", "setting": "[21]", "result": 1.7, "unit": "%"}, {"measurement": "inhibition", "setting": "[22]", "result": 1.3, "unit": "%"}, {"measurement": "inhibition", "setting": "[23]", "result": -0.3, "unit": "%"}, {"measurement": "inhibition", "setting": "[24]", "result": 4, "unit": "%"}, {"measurement": "inhibition", "setting": "[25]", "result": -2, "unit": "%"}, {"measurement": "inhibition", "setting": "[26]", "result": 4.7, "unit": "%"}, {"measurement": "inhibition", "setting": "[27]", "result": 11.7, "unit": "%"}, {"measurement": "inhibition", "setting": "[28]", "result": -2, "unit": "%"}, {"measurement": "inhibition", "setting": "[29]", "result": 5.3, "unit": "%"}]}]}
